ChEMBL document CHEMBL1201862, “PubChem BioAssay data set” (2004)
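96-well plates; 48 h exposure; 5 concentrations. Endpoints by linear interpolation between flanking doses. Not reached: highest tested concentration assigned. The concentration for 50% growth inhibition is given as GI50.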 Calls of active or inactive are those of the source. No stated cut-off is given here; in the data, active = GI50 up to about 1.1 µM and inactive = higher.

Legend:
Assay in all cases: growth of human tumour cells (NCI), 48 h
786-0 = system: 786-0
HCC 2998 = system: HCC 2998
HL-60 = system: HL-60
HOP-62 = system: HOP-62
MOLT-4 = system: MOLT-4
OVCAR-3 = system: OVCAR-3
RPMI-8226 = system: RPMI-8226
RXF 393 = system: RXF 393
SK-MEL-5 = system: SK-MEL-5
SNB-19 = system: SNB-19
ACHN = system: ACHN
HCT-15 = system: HCT-15
NCI-H226 = system: NCI-H226
SK-MEL-2 = system: SK-MEL-2

Structure (SMILES)	GI50 (786-0)	GI50 (HCC 2998)	GI50 (HL-60)	GI50 (HOP-62)	GI50 (MOLT-4)	GI50 (OVCAR-3)	GI50 (RPMI-8226)	GI50 (RXF 393)	GI50 (SK-MEL-5)	GI50 (SNB-19)	GI50 (ACHN)	GI50 (HCT-15)	GI50 (NCI-H226)	GI50 (SK-MEL-2)
CC12CP(=O)(c3ccccc3)CC1C2(Cl)Cl (stereo not given)	> 100 µM (inactive)	> 100 µM (inactive)	> 10 µM (inactive)	> 100 µM (inactive)	> 100 µM (inactive)	> 100 µM (inactive)	> 100 µM (inactive)	> 100 µM (inactive)	> 100 µM (inactive)	> 100 µM (inactive)				
C=C(C)C1CC=C(C(=O)O)CC1 (stereo not given)	1410 µM (inactive)	1080 µM (inactive)	906 µM (inactive)	995 µM (inactive)	2330 µM (inactive)	877 µM (inactive)		942 µM (inactive)	752 µM (inactive)	1190 µM (inactive)	1020 µM (inactive)	871 µM	1040 µM (inactive)	1170 µM (inactive)
O=C(Nc1ccccc1)n1cc(-c2ccccn2)c(N2CCOCC2)n1	4.49 µM (inactive)	21.7 µM (inactive)	2.44 µM (inactive)	6.59 µM (inactive)	4.15 µM (inactive)	2.12 µM (inactive)	4.27 µM (inactive)		6.04 µM (inactive)	9.57 µM (inactive)	36.6 µM (inactive)	4.47 µM	23.8 µM (inactive)	
Cc1c(Cl)ccc2[s+]snc12	19.1 µM (inactive)	88.3 µM (inactive)	17.6 µM (inactive)	51.6 µM (inactive)	26.7 µM (inactive)	51.3 µM (inactive)		19.8 µM (inactive)	21 µM (inactive)	73.3 µM (inactive)	42.2 µM (inactive)	46.2 µM	68.4 µM (inactive)	29.2 µM (inactive)
O=C(COc1ccc(Cl)cc1)N1CCN(C(=O)COc2ccc(Cl)cc2)c2ccccc21	64.9 µM (inactive)	> 100 µM (inactive)	13.4 µM (inactive)	> 100 µM (inactive)	19.2 µM (inactive)	54.6 µM (inactive)	20.6 µM (inactive)	47.6 µM (inactive)			33.6 µM (inactive)			28.1 µM (inactive)
N#CC1(C=O)c2ccccc2C=CN1C(=O)c1ccccc1 (stereo not given)	31.7 µM (inactive)	35.8 µM (inactive)	17.7 µM (inactive)		18.7 µM (inactive)	16.7 µM (inactive)		20.5 µM (inactive)	11.4 µM (inactive)	58.3 µM (inactive)	27.4 µM (inactive)	40.7 µM	61.9 µM (inactive)	61.8 µM (inactive)
CC1=CC(=O)NP(=O)(Oc2ccc(C)cc2)N1 (stereo not given)	> 100 µM (inactive)		> 100 µM (inactive)	> 100 µM (inactive)	> 100 µM (inactive)	> 100 µM (inactive)	> 100 µM (inactive)		> 100 µM (inactive)	> 100 µM (inactive)	> 100 µM (inactive)	> 100 µM	> 100 µM (inactive)	> 100 µM (inactive)
COc1ccccc1/N=N/c1c(-c2ccccc2)nn(C(=O)CC(=O)Nc2cccc(C)c2)c1-c1ccccc1	43.1 µM (inactive)	42 µM (inactive)	15.3 µM (inactive)	19.1 µM (inactive)	10.7 µM (inactive)	16 µM (inactive)		53.3 µM (inactive)	18.7 µM (inactive)	27.2 µM (inactive)	28.4 µM (inactive)	21.1 µM	36.3 µM (inactive)	
CCOC12OC3=C(CC1CC1=C(CCC1=O)O2)C(=O)CC3 (stereo not given)	> 100 µM (inactive)		> 100 µM (inactive)	> 100 µM (inactive)	> 100 µM (inactive)	> 100 µM (inactive)	> 100 µM (inactive)	> 100 µM (inactive)	> 100 µM (inactive)	> 100 µM (inactive)		> 100 µM	> 100 µM (inactive)	> 100 µM (inactive)
N#CC(c1ccc(Cl)cc1)c1cccc(Cl)n1 (stereo not given)	82.2 µM (inactive)	61 µM (inactive)	47.1 µM (inactive)	91 µM (inactive)	55.8 µM (inactive)	34 µM (inactive)	51.1 µM (inactive)			> 100 µM (inactive)	32.7 µM (inactive)		43.6 µM (inactive)	54.8 µM (inactive)
CC[C@H]1[C@@H](C)C=C[C@@H](C)N1S(=O)(=O)c1ccc(C)cc1	> 100 µM (inactive)		18.5 µM (inactive)	> 100 µM (inactive)	79.3 µM (inactive)	> 100 µM (inactive)	34.1 µM (inactive)	48.6 µM (inactive)	92 µM (inactive)	0.693 µM (active)	67 µM (inactive)	61.2 µM	> 100 µM (inactive)	19.8 µM (inactive)
COc1ccc([C@@H]2OC(=O)C3C2C(=O)O[C@H]3c2ccc(OC)cc2)cc1 (stereo not given in full)	> 100 µM (inactive)	> 100 µM (inactive)	> 100 µM (inactive)	> 100 µM (inactive)	> 100 µM (inactive)	> 100 µM (inactive)	> 100 µM (inactive)	76.4 µM (inactive)		> 100 µM (inactive)	> 100 µM (inactive)	> 100 µM		> 100 µM (inactive)
NC(=S)N/N=C/c1cn(CCCl)c2ccccc12	43.7 µM (inactive)		9.57 µM (inactive)	89.5 µM (inactive)	14.2 µM (inactive)	36.8 µM (inactive)	14.2 µM (inactive)	> 100 µM (inactive)	15.9 µM (inactive)	> 100 µM (inactive)		8.69 µM		72.1 µM (inactive)
CC(=O)OCC1OC(N2C(=O)C(=O)c3ccccc32)C(OC(C)=O)C(OC(C)=O)C1OC(C)=O (stereo not given)	> 100 µM (inactive)	> 100 µM (inactive)		> 100 µM (inactive)	> 100 µM (inactive)	> 100 µM (inactive)	> 100 µM (inactive)	> 100 µM (inactive)	> 100 µM (inactive)	> 100 µM (inactive)	> 100 µM (inactive)	> 100 µM	> 100 µM (inactive)	> 100 µM (inactive)
O=C(C=P(c1ccccc1)(c1ccccc1)c1ccccc1)CC(=S)CC(=O)C=P(c1ccccc1)(c1ccccc1)c1ccccc1	4.16 µM (inactive)	3.85 µM (inactive)	1.98 µM (inactive)	8.04 µM (inactive)		2.61 µM (inactive)	2.24 µM (inactive)	5.61 µM (inactive)	2.81 µM (inactive)	4.33 µM (inactive)	7.08 µM (inactive)	15.3 µM	5.85 µM (inactive)	
CCOC(=O)[C-]([N+]#N)[Si](C)(C)C	> 100 µM (inactive)	> 100 µM (inactive)		20.5 µM (inactive)		> 100 µM (inactive)		> 100 µM (inactive)	> 100 µM (inactive)	> 100 µM (inactive)	> 100 µM (inactive)	27.5 µM		> 100 µM (inactive)
c1ccc(COCC2OC3c4ccccc4COC3C2OCc2ccccc2)cc1 (stereo not given)	> 100 µM (inactive)	> 100 µM (inactive)			48.8 µM (inactive)	> 100 µM (inactive)	63 µM (inactive)	32 µM (inactive)	70.6 µM (inactive)	> 100 µM (inactive)	> 100 µM (inactive)	69.5 µM	> 100 µM (inactive)	> 100 µM (inactive)
